# Test results published in US20170073337A1, “DIHYDROTHIAZINE AND DIHYDROOXAZINE DERIVATIVES HAVING BACE1 INHIBITORY ACTIVITY” (Shionogi & Co., Ltd., priority 2014, published 2017).
# Experiments:
# [1] = Brain distribution studies; format: in vivo; conditions: rat, 30 minutes later, area ratio brain/plasma; for Kp at 0.5 h: brain / plasma, iv, 0.5 mg/mL/kg
# Description: Compound of the present invention was intravenously administered to a rat at 0.5 mg/mL/kg dosage. 30 minutes later, all blood was drawn from the abdominal aorta under isoflurane anesthesia for death from exsanguination. […] The obtained blood was used as plasma after centrifuging. The control plasma was added to the brain sample at 1:1. The control brain homogenate was added to the plasma sample at 1:1. Each sample was measured using LC/MS/MS. The obtained area ratio (a brain/plasma) was used for the brain Kp value.
# P-gp = target: T1, P-gp (Mus musculus, UniProt P21447); assay: P-gp substrate test using mdr1a (−/−) B6 mice; format: in vivo; conditions: Kp in KO mouse (mdr1a (−/−) B6) / Kp in Wild mouse; for Kp at 2 h: mdr1a (−/−) B6 (KO) and C57BL/6J (wild), mouse, brain / plasma, po, 2 mg/kg, read-out: Kp ratio (2 mg/kg, po, 2 hr)
# T1 construct: from tissue; host or cells: living mice (brain/plasma distribution), wild type versus mdr1a (−/−)
# T1 sequence (P21447 whole entry): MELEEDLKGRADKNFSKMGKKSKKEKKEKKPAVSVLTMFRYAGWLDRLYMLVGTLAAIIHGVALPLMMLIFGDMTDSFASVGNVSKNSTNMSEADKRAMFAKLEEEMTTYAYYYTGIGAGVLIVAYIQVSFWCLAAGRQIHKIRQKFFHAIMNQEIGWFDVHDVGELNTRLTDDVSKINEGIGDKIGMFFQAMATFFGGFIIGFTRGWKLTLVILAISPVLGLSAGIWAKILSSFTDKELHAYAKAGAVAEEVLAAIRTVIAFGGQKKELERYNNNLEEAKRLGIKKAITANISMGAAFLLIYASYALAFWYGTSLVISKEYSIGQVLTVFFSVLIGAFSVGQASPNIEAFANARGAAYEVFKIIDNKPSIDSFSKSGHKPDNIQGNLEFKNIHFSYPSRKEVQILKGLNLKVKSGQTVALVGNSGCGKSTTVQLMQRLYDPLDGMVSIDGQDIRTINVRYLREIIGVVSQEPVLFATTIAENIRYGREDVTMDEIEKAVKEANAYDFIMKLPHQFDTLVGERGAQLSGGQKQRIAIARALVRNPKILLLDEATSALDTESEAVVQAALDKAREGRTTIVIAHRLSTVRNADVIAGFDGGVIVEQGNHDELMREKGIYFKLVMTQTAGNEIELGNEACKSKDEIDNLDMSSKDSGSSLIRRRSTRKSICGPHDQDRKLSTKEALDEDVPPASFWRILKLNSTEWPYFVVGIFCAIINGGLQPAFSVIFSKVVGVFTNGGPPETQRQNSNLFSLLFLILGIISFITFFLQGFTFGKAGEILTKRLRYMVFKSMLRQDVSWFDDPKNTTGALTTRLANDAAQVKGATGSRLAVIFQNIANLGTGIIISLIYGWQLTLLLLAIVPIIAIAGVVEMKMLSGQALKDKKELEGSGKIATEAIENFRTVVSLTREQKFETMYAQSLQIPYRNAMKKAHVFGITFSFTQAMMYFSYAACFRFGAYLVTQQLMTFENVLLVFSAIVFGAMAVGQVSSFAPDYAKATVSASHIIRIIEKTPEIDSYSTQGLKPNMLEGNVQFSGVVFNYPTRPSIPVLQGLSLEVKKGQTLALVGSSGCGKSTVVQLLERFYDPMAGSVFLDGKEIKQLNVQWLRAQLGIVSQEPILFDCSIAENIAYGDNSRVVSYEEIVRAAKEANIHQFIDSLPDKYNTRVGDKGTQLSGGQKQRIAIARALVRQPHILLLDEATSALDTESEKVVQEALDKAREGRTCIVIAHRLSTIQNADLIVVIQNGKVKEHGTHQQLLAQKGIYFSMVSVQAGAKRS
# Description: Animal: mdrla (−/−) B6 mice (KO mouse) or […] mice (Wild mouse)
# 1. Animals may be fed prior to dosing of the compounds of the present invention. 2. The compounds of the present invention were dosed to three animals for each time point and blood and brain samples were removed at selected time points (e.g. 15 min, 30 min, 1 hr, 2 hr, 4 hr, 6 hr, 8 hr, or 24 hr) after dosing. Blood (0.3-0.7 mL) was collected via trunk blood collection with syringe containing anticoagulants (EDTA and heparin). Blood and tissue (e.g. brain) samples were immediately placed on melting ice. 3. Blood samples were centrifuged (1780×g for 10 minutes) for cell removal to obtain plasma. Then, plasma samples were transferred to a clean tube and stored in a −70° C. freezer until analysis. 4. Tissue (e.g. brain) samples were homogenized at a 1:3 ratio of tissue weight to ml of stilled water and transferred to a clean tube and stored in a −70° C. freezer until analysis. 5. Plasma and tissue (e.g. brain) samples were prepared using protein prceipitation and analyzed by LC/MS/MS. The analytical method was calibrated by including a standard curve constructed with blank plasma or brain samples and known quantities of analyte. Quality control samples were included to monitor the accuracy and precision of the methodology. 6. Plasma and brain concentration values (ng/mL and ng/g) were introduced into an appropriate tool used for calculating the pharmacokinetic parameters. A common platform was the WinNonlin (Registered trademark) pharmacokinetic software modeling program.
# Kp: Tissue to Plasma concentration ratio Kp ratio=Kp in KO mouse/Kp in Wild mouse KO/Wild ratio of AUC Tissue/AUC Plasma ={AUC Tissue/AUC Plasma (KO mouse)}/{AUC Tissue/AUC Plasma (Wild mouse)}
# [2] = Pharmacokinetic study (oral absorption); format: in vivo; conditions: bioavailability from AUCs of oral and intravenous administration; mouse or rat
# Description: (1l) Animal: mouse or rat (2) Breeding conditions: mouse or rat was allowed free access to the tap water and the solid food. (3) Dose and grouping: orally or intravenously administered at a predetermined dose: grouping was as follows (Dose depends on the compound) Oral administration: 1 to 30 mg/kg (n=2 to 3) Intravenous administration: 0.5 to 10 mg/kg (n=2 to 3) (4) Dosing formulation: for oral administration, in a solution or a suspension state; for intravenous administration, in a solubilized state (5) Dosing method: in oral administration, forcedly administer using a syringe attached a flexible feeding tube; in intravenous administration, administer from caudal vein using a syringe attached with a needle. (6) Evaluation items: blood was collected at the scheduled time, and the plasma concentration of the compound of the present invention was measured by LC/MS/MS (7) Statistical analysis: regarding the transition of the plasma concentration of the compound of the present invention, the area under the plasma concentration-time curve (AUC) was calculated by non-linear least squares program WinNonlin (Registered trademark), and the bioavailability (BA) of the compound of the present invention was calculated from the AUCs of the oral administration group and intravenous administration group
# [3] = test system: Aβ production in neuroblastoma SH-SY5Y cells (SH/APPwt); assay: β-amyloid (Aβ) production inhibitory effect in cell: 384-well; format: cell-based; conditions: Homo sapiens, Assay format 384-well
# Procedure, shortened: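 Aβ1-40 secreted by SH/APPwt neuroblastoma cells was quantified by HTRF (overnight, 4 °C, light-protected; emission 620/665 nm). Cells were exposed to compound from seeding for 21 h at 1% final DMSO.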
SMILES,Kp at 0.5 h [1],Kp at 2 h (P-gp),BA_% [2] [%],IC50 [3] [nM],Kp Brain ([1]; intravenous 0.5 mg/mL/kg),"Kp ratio (2 mg/kg, po, 2 hr) (P-gp)"
C[C@H]1SC(N)=N[C@](C)(c2nc(NC(=O)c3ccc(C#N)cn3)ccc2F)[C@H]1F [Compound I-1],2,4.12,66.7,–,–,–
C[C@H]1SC(N)=N[C@](C)(c2nc(NC(=O)c3ccc(F)cn3)ccc2F)[C@H]1F [Compound I-2],2.9,0.959,51.3,–,–,–
C[C@H]1SC(N)=N[C@](C)(c2nc(NC(=O)c3cnc(OCF)cn3)ccc2F)[C@H]1F [Compound I-3],2.3,5.16,38.8,–,–,–
C[C@]1(c2nc(NC(=O)c3ccc(C#N)cn3)ccc2F)N=C(N)S[C@H](CF)[C@@H]1F [Compound I-4],2,2.92,83.2,–,–,–
C[C@@]1(c2cc(NC(=O)c3ccc(C#N)cn3)ccc2F)C[C@@](C)(C(F)(F)F)OC(N)=N1 [Compound I-7],2,4.21,32.8,–,–,–
COc1cnc(C(=O)Nc2ccc(F)c([C@@]3(C)N=C(N)S[C@H](C)[C@@H]3F)c2)cn1 [Compound I-8],1.8,2.22,27.4,–,–,–
C[C@H]1[C@@H](C(F)(F)F)OC(N)=N[C@]1(C)c1cc(NC(=O)c2ccc(C#N)cn2)ccc1F [Compound I-28],–,5.41,–,–,–,–
C[C@H]1[C@@H](C(F)(F)F)OC(N)=N[C@]1(C)c1cc(NC(=O)c2cnc(OCF)cn2)ccc1F [Compound I-30],3.2,3.63,–,–,–,–

# More lines, now with the values ahead:
Kp at 0.5 h [1],Kp at 2 h (P-gp),BA_% [2] [%],IC50 [3] [nM],Kp Brain ([1]; intravenous 0.5 mg/mL/kg),"Kp ratio (2 mg/kg, po, 2 hr) (P-gp)",SMILES
–,5.15,–,–,–,–,C[C@]1(c2cc(NC(=O)c3ccc(C#N)cn3)ccc2F)N=C(N)O[C@H]2[C@@H]1OCC2(F)F [Compound I-35]
0.74,6.97,36.2,6,–,–,CC(F)(F)[C@H]1OC(N)=N[C@](C)(c2cc(NC(=O)c3ccc(C#N)cn3)ccc2F)[C@H]1F [Compound I-40]
–,–,35.2,15,1.9,2.66,C[C@H]1[C@@H](C(F)(F)F)OC(N)=N[C@]1(C)c1cc(NC(=O)c2cnc(OCF)cn2)ccc1F [Compound I-41]
2,2.07,28.7,21,–,–,COc1cnc(C(=O)Nc2ccc(F)c([C@@]3(C)N=C(N)O[C@H](C(C)(F)F)[C@@H]3F)c2)cn1 [Compound I-42]
1.9,6.13,22.2,2.4,–,–,C[C@H]1SC(N)=N[C@](C)(c2cc(NC(=O)c3cnc(OCC(F)(F)F)cn3)ccc2F)[C@H]1F [Compound I-46]
1.1,2.12,–,1.2,–,–,C[C@H]1SC(N)=N[C@](C)(c2cc(NC(=O)c3cnc(OC(F)F)cn3)ccc2F)[C@H]1F [Compound I-47]
2.1,5.57,–,5.4,–,–,C[C@H]1SC(N)=N[C@](C)(c2cc(NC(=O)c3cnc(OCC(F)F)cn3)ccc2F)[C@H]1F [Compound I-48]
1.8,4.54,78.7,0.99,–,–,C[C@H]1SC(N)=N[C@](C)(c2cc(NC(=O)c3ccc(F)cn3)ccc2F)[C@H]1F [Compound I-116]
